{"source": "patent US20230112845A1", "about": "“COMPOSITIONS OF BERBERINE URSODE[…] METHODS THEREOF FOR TREATING FATTY LIVER DISEASE, DIABETES AND HYPERLIPIDEMIA” (SHENZHEN HIGHTIDE BIOPHARMACEUTICAL LTD., priority 2020, published 2023)", "tested_on": "patients with presumed NASH and type 2 diabetes", "assay": "Phase 2 randomized placebo-controlled trial, 18 weeks: liver fat content (MRI-PDFF), glycemic control, liver enzymes, lipids, body weight, fibrosis markers", "format": "in vivo, human", "details": "for Proportion achieving ≥ 30% relative reduction in LFC (subjects/total): placebo 7/33; for Proportion achieving ≥ 5% Absolute Reduction in LFC (subjects/total): placebo 8/33; for Proportion achieving ≥ 30% relative reduction in LFC (percent): placebo 21%; for Proportion achieving ≥ 5% Absolute Reduction in LFC (percent): placebo 24%; for decrease in mean HbA1c level: placebo increase of 0.1%", "description": "The aim of this study was to determine the effect of two different doses of BUDCA on liver fat content (LFC) in patients with diabetes and presumed NASH when administered for 18 weeks. This phase 2 clinical trial tested the effect of BUDCA in patients with fatty liver disease and diabetes. The group taking the higher dose of this new drug had significant reductions in the amount of fat in their liver as well as improvement in their diabetes.\nA prospective, randomized, placebo-controlled trial of two doses of BUDCA administered orally was conducted in a cohort of 100 subjects with fatty liver disease and diabetes. Treatment was for 18 weeks and endpoints measured included reduction in liver fat content measured by […] proton density fat fraction, improvement in glycemic control, changes in liver-associated enzymes, safety and tolerability.\nPatients with diabetes and presumed NASH were randomized into one of three treatment groups, as follows: 1) BUDCA 500 mg BID 2) 1,000 mg BID and 3) matching placebo. Presumed NASH was defined based largely on magnetic resonance imaging derived proton density fat fraction (MRI-PDFF) of 10% or more. Additional inclusion criteria further enriched the study population for having NASH by virtue of requiring corrected T1 (cT1) of more than 830 milliseconds and elevated serum aspartate aminotransferase (AST)≥20 units per liter (6). Subjects had to be overweight or obese with body mass index of 25 kg/m^2 or more.\nStudy subjects underwent an initial screening evaluation, including measurement of LFC by MRI-PDFF. Subjects were excluded if they had known liver disease other than fatty liver disease or a history of excessive alcohol consumption. Although liver biopsies were not done as a part of this study, subjects with clear evidence of cirrhosis were excluded, based upon a platelet count of less than 150,000/mm^3, serum albumin levels less than […] or a current or previous history of clinical hepatic decompensation.\nThose who were deemed eligible were then randomized into one of the three treatment groups described above and underwent a further baseline evaluation at the time of randomization and initial dosing. Subjects were permitted to continue their current treatment regimen for diabetes provided they had been on a stable dose regimen for at least 90 days.\nLFC was measured at baseline and after 18 weeks of therapy. In addition, changes in liver chemistry tests, measures of glycemic control and serum lipid levels were also assessed during and at the end of treatment.\nDescriptive Statistics were used to summarize continuous data, and frequencies and percentages were used to summarize categorical data. The Safety Set consisted of all subjects who received at least one dose of study treatment. The Modified Efficacy Set is a subset of the Safety Set consisting of subjects that had at least one post-dose MRI-PDFF assessment. […] The primary endpoint was an absolute change from Baseline to Week 18 (or ET) in Liver Fat Content. Primary Endpoint summary measures were provided in both the Efficacy and Modified Efficacy sets, with the Efficacy Set prespecified as the primary analysis set. All other endpoints were prespecified to use the Modified Efficacy Set. Comparisons between active treatment groups relative to placebo were tested using Analysis of Covariance (ANCOVA) with treatment group as a fixed effect and baseline value of the parameters of interest as covariates. ANCOVA based LS Means and raw means have been reported. For statistical analysis of laboratory parameters (i.e. P-values), multiple imputation was used to take missing data into account. A two-sided alpha level of 0.05 without adjustment for multiple tests was used to indicate statistical significance. Analyses were performed using SAS System version 9.4.\nEffects of treatment with BUDCA on AST to Platelet Ratio Index (APRI) and Fibrosis-4 (FIB-4) were also measured."}
{"smiles": "COc1ccc2cc3[n+](cc2c1OC)CCc1cc2c(cc1-3)OCO2.C[C@H](CCC(=O)[O-])[C@H]1CC[C@H]2[C@@H]3[C@@H](O)C[C@@H]4C[C@H](O)CC[C@]4(C)[C@H]3CC[C@]12C", "note": "[BUDCA, berberine ursodeoxycholate]", "values": [{"measurement": "Proportion achieving ≥ 30% relative reduction in LFC (subjects/total)", "setting": "500 mg BID, 18 weeks", "result": "6/31"}, {"measurement": "Proportion achieving ≥ 5% Absolute Reduction in LFC (subjects/total)", "setting": "500 mg BID, 18 weeks", "result": "10/31"}, {"measurement": "Proportion achieving ≥ 30% relative reduction in LFC (percent)", "setting": "500 mg BID, 18 weeks", "result": "(19%)"}, {"measurement": "Proportion achieving ≥ 5% Absolute Reduction in LFC (percent)", "setting": "500 mg BID, 18 weeks", "result": "(32%)"}, {"measurement": "decrease in mean HbA1c level", "setting": "500 mg BID, 18 weeks", "result": 0.3, "unit": "%"}, {"measurement": "Absolute Change in LFC (%), Mean", "setting": "1,000 mg BID, 18 weeks, Efficacy Set, N 27, placebo −2.0", "result": "−4.8", "unit": "%"}, {"measurement": "Relative Change in LFC (%), Mean", "setting": "1,000 mg BID, 18 weeks, Efficacy Set, N 27, placebo −8.3", "result": "−24.1", "unit": "%"}, {"measurement": "Absolute Change in LFC (%), LS Mean", "setting": "1,000 mg BID, 18 weeks, Efficacy Set, placebo −1.8, P 0.011", "result": "−4.7", "unit": "%"}, {"measurement": "Relative Change in LFC (%), LS Mean", "setting": "1,000 mg BID, 18 weeks, Efficacy Set, placebo −8.2, P 0.016", "result": "−23.3", "unit": "%"}, {"measurement": "Mean change in LDL-c (mg/dL), Mean", "setting": "1,000 mg BID, 18 weeks, Modified Efficacy Set, N 25, placebo 0", "result": -16, "unit": "mg/dL"}, {"measurement": "Mean change in HbA1c (%), Mean", "setting": "1,000 mg BID, 18 weeks, Modified Efficacy Set, N 26, placebo 0.1", "result": "−0.6", "unit": "%"}, {"measurement": "Relative change in GGT (%), Mean", "setting": "1,000 mg BID, 18 weeks, Modified Efficacy Set, N 26, placebo 5", "result": "−29", "unit": "%"}, {"measurement": "Mean change in TG (mg/dL), Mean", "setting": "1,000 mg BID, 18 weeks, Modified Efficacy Set, N 26, placebo 18", "result": -24, "unit": "mg/dL"}, {"measurement": "Mean change in GGT (U/L), Mean", "setting": "1,000 mg BID, 18 weeks, Modified Efficacy Set, N 26, placebo −2", "result": "−30", "unit": "U/L"}, {"measurement": "Mean change in ALT (U/L), Mean", "setting": "1,000 mg BID, 18 weeks, Modified Efficacy Set, N 26, placebo −3", "result": "−19", "unit": "U/L"}, {"measurement": "Relative change in ALT (%), Mean", "setting": "1,000 mg BID, 18 weeks, Modified Efficacy Set, N 26, placebo −6", "result": "−21", "unit": "%"}, {"measurement": "Mean change in HbA1c (%), LS Mean", "setting": "1,000 mg BID, 18 weeks, Modified Efficacy Set, placebo 0.1, P 0.005", "result": "−0.5", "unit": "%"}, {"measurement": "Mean change in LDL-c (mg/dL), LS Mean", "setting": "1,000 mg BID, 18 weeks, Modified Efficacy Set, placebo 1, P 0.072", "result": -12, "unit": "mg/dL"}, {"measurement": "Mean change in TG (mg/dL), LS Mean", "setting": "1,000 mg BID, 18 weeks, Modified Efficacy Set, placebo 19, P 0.120", "result": -24, "unit": "mg/dL"}, {"measurement": "Mean change in GGT (U/L), LS Mean", "setting": "1,000 mg BID, 18 weeks, Modified Efficacy Set, placebo −1, P <0.001", "result": "−25", "unit": "U/L"}, {"measurement": "Mean change in ALT (U/L), LS Mean", "setting": "1,000 mg BID, 18 weeks, Modified Efficacy Set, placebo −2, P 0.007", "result": "−16", "unit": "U/L"}, {"measurement": "Mean change in Body weight (kg), Mean", "setting": "1,000 mg BID, 18 weeks, Safety Set, N 27, placebo −1.1", "result": -3.5, "unit": "kg"}, {"measurement": "Mean change in Body weight (kg), LS Mean", "setting": "1,000 mg BID, 18 weeks, Safety Set, placebo −1.1, P 0.012", "result": -3.5, "unit": "kg"}, {"measurement": "average body weight loss", "setting": "1,000 mg BID, 18 weeks, P=0.012", "result": 3.5, "unit": "kg"}, {"measurement": "absolute LFC decrease, average", "setting": "1,000 mg BID, 18 weeks, placebo 2.0%, p=0.011", "result": 4.8, "unit": "%"}, {"measurement": "Proportion achieving ≥ 30% relative reduction in LFC (subjects/total)", "setting": "1,000 mg BID, 18 weeks", "result": "10/30"}, {"measurement": "Proportion achieving ≥ 5% Absolute Reduction in LFC (subjects/total)", "setting": "1,000 mg BID, 18 weeks", "result": "12/30"}, {"measurement": "relative decrease in LFC", "setting": "1,000 mg BID, 18 weeks, placebo 8.3%, p=0.016", "result": 24.1, "unit": "%"}, {"measurement": "Proportion achieving ≥ 30% relative reduction in LFC (percent)", "setting": "1,000 mg BID, 18 weeks", "result": "(33%)"}, {"measurement": "Proportion achieving ≥ 5% Absolute Reduction in LFC (percent)", "setting": "1,000 mg BID, 18 weeks", "result": "(40%)"}, {"measurement": "decrease in mean HbA1c level", "setting": "1,000 mg BID, 18 weeks", "result": 0.6, "unit": "%"}, {"measurement": "proportion of subjects showing improvements in APRI to thresholds associated with less severe fibrosis, vs placebo", "setting": "1,000 mg, 18 weeks", "result": "approximately 2 fold"}, {"measurement": "proportion of subjects showing improvements in FIB-4 to thresholds associated with less severe fibrosis, vs placebo", "setting": "1000 mg, 18 weeks", "result": "approximately 4 fold"}, {"measurement": "reduction in APRI vs placebo", "setting": "1,000 mg, after 18 weeks (FIG. 6)", "result": "approximately 3 fold"}, {"measurement": "reduction in FIB-4 vs placebo", "setting": "1000 mg, after 18 weeks (FIG. 7)", "result": "approximately 3 fold"}, {"measurement": "percentage of subjects achieving ALT reductions vs placebo", "setting": "18 weeks (FIG. 8)", "result": "greater percentage"}, {"measurement": "Pro-C3 vs placebo", "setting": "18 weeks (FIG. 9)", "result": "No significant differences"}, {"measurement": "enhanced liver fibrosis (ELF) score vs placebo", "setting": "18 weeks (FIG. 9)", "result": "No significant differences"}, {"measurement": "change in HOMA-IR", "setting": "BUDCA therapy, 18 weeks", "result": "No significant changes"}, {"measurement": "change in level of HDL-c", "setting": "BUDCA therapy, 18 weeks", "result": "no significant change"}, {"measurement": "change in level of blood glucose", "setting": "BUDCA therapy, 18 weeks", "result": "No significant changes"}, {"measurement": "change in level of insulin", "setting": "BUDCA therapy, 18 weeks", "result": "No significant changes"}, {"measurement": "average decrease in level of LDL-c", "setting": "high dose group (1,000 mg BID), 18 weeks, P=0.072", "result": 16, "unit": "mg/dL"}]}
